# Experimental data published in ChEMBL document CHEMBL2074179, “Comparison of "type I" and "type II" organic cation transport by organic cation transporters and organic anion-transporting polypeptides” (J Pharmacol Exp Ther, 2001).
# Several values for one entry are separate records, joined by “and”; a condition that tells them apart may be missing. Equal values may be shown once.
# T1: Solute carrier family 22 member 1 (Rattus norvegicus, UniProt Q63089)
# T1 sequence (Q63089 whole entry): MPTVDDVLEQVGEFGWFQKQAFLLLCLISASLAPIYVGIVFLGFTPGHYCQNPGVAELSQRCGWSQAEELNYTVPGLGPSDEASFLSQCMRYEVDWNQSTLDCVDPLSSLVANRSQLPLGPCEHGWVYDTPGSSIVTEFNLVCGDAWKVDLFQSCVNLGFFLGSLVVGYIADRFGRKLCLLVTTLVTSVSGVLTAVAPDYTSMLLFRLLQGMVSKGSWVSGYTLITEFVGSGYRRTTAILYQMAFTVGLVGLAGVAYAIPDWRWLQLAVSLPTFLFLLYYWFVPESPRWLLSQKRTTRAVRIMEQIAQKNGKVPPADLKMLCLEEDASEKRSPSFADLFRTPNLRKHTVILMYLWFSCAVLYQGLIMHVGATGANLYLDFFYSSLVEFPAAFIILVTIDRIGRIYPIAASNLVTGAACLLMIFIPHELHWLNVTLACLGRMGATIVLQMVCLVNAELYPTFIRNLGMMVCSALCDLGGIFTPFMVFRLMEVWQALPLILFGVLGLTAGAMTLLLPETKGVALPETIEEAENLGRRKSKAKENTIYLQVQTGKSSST
# T2: Solute carrier family 22 member 1 (Homo sapiens, UniProt O15245)
# T2 sequence (O15245 whole entry): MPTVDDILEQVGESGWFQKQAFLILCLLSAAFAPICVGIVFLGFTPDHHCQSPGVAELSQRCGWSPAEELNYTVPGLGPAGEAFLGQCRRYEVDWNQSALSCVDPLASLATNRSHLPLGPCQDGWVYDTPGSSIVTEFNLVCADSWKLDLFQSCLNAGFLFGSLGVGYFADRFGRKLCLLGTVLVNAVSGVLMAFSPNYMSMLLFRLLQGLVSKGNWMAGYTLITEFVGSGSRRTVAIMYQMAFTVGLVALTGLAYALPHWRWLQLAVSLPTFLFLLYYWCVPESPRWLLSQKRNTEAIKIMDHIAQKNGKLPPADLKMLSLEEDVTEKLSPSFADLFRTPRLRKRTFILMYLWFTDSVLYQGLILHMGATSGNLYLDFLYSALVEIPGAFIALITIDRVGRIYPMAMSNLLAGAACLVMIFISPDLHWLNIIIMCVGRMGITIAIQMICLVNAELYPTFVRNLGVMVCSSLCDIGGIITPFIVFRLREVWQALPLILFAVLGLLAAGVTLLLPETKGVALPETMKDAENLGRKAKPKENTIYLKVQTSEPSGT
# T3: Solute carrier organic anion transporter family member 1A4 (Rattus norvegicus, UniProt O35913)
# T3 sequence (O35913 whole entry): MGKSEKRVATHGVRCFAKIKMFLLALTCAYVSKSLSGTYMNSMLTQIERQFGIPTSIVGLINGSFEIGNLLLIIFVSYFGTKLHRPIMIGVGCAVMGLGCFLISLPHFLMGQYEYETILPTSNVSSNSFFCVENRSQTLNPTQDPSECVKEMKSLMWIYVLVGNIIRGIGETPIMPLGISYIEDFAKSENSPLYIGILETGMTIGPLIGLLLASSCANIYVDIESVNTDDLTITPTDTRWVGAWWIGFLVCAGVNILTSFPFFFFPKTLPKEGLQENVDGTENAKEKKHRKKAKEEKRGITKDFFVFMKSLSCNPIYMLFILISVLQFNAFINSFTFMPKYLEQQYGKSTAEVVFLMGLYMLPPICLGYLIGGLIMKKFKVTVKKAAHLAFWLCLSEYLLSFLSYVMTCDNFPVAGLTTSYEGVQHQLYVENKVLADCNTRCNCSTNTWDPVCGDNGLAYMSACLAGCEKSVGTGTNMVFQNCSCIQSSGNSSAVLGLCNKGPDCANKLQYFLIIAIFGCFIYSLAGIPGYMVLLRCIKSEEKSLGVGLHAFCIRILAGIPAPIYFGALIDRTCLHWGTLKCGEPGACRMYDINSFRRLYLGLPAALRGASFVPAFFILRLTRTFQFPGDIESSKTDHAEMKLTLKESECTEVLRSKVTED
# T4: Solute carrier organic anion transporter family member 1A2 (Homo sapiens, UniProt P46721)
# T4 sequence (P46721 whole entry): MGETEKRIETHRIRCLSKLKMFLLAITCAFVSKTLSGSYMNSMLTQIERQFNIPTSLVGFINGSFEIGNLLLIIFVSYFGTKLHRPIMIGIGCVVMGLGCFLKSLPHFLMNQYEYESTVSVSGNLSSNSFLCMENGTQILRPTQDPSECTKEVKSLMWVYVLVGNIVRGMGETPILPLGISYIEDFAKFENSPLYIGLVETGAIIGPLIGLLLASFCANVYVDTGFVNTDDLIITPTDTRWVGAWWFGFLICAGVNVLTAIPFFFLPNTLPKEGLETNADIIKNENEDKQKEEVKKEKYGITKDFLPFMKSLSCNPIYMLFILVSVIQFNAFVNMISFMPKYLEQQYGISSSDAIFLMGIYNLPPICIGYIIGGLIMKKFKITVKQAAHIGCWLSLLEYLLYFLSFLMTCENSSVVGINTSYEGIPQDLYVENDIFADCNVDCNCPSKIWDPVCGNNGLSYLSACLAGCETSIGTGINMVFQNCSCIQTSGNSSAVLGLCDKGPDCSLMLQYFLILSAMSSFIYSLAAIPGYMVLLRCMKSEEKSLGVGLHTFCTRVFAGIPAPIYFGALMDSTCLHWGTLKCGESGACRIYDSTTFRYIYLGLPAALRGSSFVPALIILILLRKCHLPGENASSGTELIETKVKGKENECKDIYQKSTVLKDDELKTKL
# B1: Solute carrier family 22 member 1 (Homo sapiens) (protein)
# chain: T2 sequence (O15245 whole entry)
# B2: Solute carrier family 22 member 1 (Rattus norvegicus) (protein)
# chain: T1 sequence (Q63089 whole entry)
# Tests used:
# [1] = biological target: T1, Solute carrier family 22 member 1; experiment: (§1) TP_TRANSPORTER: uptake in Xenopus laevis oocytes; type: functional, cell-based; details: oocyte
# [2] = biological target: T2, Solute carrier family 22 member 1; experiment: as §1; type: functional, cell-based; details: oocyte
# [3] = biological target: T3, Solute carrier organic anion transporter family member 1A4; experiment: (§2) TP_TRANSPORTER: inhibition of Rocuronium uptake in Xenopus laevis oocytes; type: functional, cell-based; details: oocyte
# [4] = biological target: T1, Solute carrier family 22 member 1; experiment: as §2; type: functional, cell-based; details: oocyte
# [5] = biological target: T2, Solute carrier family 22 member 1; experiment: (§3) TP_TRANSPORTER: inhibition of TBuMA uptake in Xenopus laevis oocytes; type: functional, cell-based; details: oocyte
# [6] = biological target: T4, Solute carrier organic anion transporter family member 1A2; experiment: as §2; type: functional, cell-based; details: oocyte
# [7] = biological target: T1, Solute carrier family 22 member 1; experiment: as §3; type: functional, cell-based; details: oocyte
# [8] = substrate: [H][C@@]12CC[N+](C)(C[C@]1([H])C=C)[C@@]([H])([C@@H](O)c1ccnc3ccc(OC)cc13)C2; experiment: as §1; type: functional, cell-based, Oocyte
# [9] = substrate: C=C[C@H]1C[N+]2(C)CC[C@H]1C[C@H]2[C@H](O)c1ccnc2ccc(OC)cc12; experiment: as §1; type: functional, cell-based, Oocyte
# [10] = substrate: CCCC[N+](C)(CCCC)CCCC; experiment: as §1; type: functional, cell-based, Oocyte
# [11] = substrate: CC[N+](C)(CC)CCNC(=O)c1ccc(N=[N+]=[N-])cc1; experiment: as §1; type: functional, cell-based, Oocyte
molecule,measurement,setting,value
CC1(CCC[N+]23CCC(CC2)CC3)N=N1,Activity,[1],substrate [+]
same,Activity,[2],substrate [+]
CCC1C[N+]2(CCCC3(C)N=N3)C3CC45c6ccccc6N(C)C4C2CC1C3C5O (stereo unspecified),Activity,[1],substrate [+]
same,Activity,[2],substrate [+]
C[C@@H]1O[C@@H](O[C@H]2C[C@@H](O)[C@]3(CO)[C@H]4[C@H](O)C[C@]5(C)[C@@H](C6=CC(=O)OC6)CC[C@]5(O)[C@@H]4CC[C@]3(O)C2)[C@H](O)[C@H](O)[C@H]1O [OUABAIN],Activity,[3],inhibitor [+]
C=CC[N+]1([C@H]2C[C@H]3[C@@H]4CC[C@H]5C[C@H](O)[C@@H](N6CCOCC6)C[C@]5(C)[C@H]4CC[C@]3(C)[C@H]2OC(C)=O)CCCC1 [ROCURONIUM],Activity,[4],inhibitor [+]
same,Activity,[5],inhibitor [+]
CO[C@H]1C[C@H](O[C@H]2CC[C@]3(C=O)[C@H]4CC[C@]5(C)[C@@H](C6=CC(=O)OC6)CC[C@]5(O)[C@@H]4CC[C@]3(O)C2)O[C@H](C)[C@H]1O[C@@H]1O[C@H](CO[C@@H]2O[C@H](CO)[C@@H](O)[C@H](O)[C@H]2O)[C@@H](O)[C@H](O)[C@H]1O,Activity,[6],inhibitor [+]
same,Activity,[3],inhibitor [+]
C=C[C@H]1C[N+]2(C)CC[C@H]1C[C@@H]2[C@@H](O)c1ccnc2ccc(OC)cc12,Activity,[6],inhibitor [+]
same,Activity,[7],inhibitor [+]
same,Activity,[5],inhibitor [+]
C=C[C@H]1C[N@@]2CC[C@H]1C[C@@H]2[C@@H](O)c1ccnc2ccc(OC)cc12 [QUINIDINE],Activity,[6],inhibitor [+]
same,Activity,[7],inhibitor [+]
same,Activity,[5],inhibitor [+]
CC[N+](C)(CC)CCNC(=O)c1ccc(N=[N+]=[N-])cc1.[I-] [AZIDOPROCAINAMIDE METHOIODIDE],Activity,[6],inhibitor [+]
same,Activity,[7],inhibitor [+]
same,Activity,[5],inhibitor [+]
B1,Km,[8],11.5 µM and 12 µM
same,Km,[9],19.5 µM and 20 µM
same,Km,[10],53 µM
same,Km,[11],101 µM
B2,Km,[8],7.4 µM
same,Km,[9],17.3 µM and 17 µM
same,Km,[10],34 µM
same,Km,[11],54 µM
